# Test results published in patent publication US8541029B2, “Article and method for focused delivery of therapeutic and/or diagnostic materials” (Armark Authentication Technologies, LLC, priority 2006, dated 2013).
# Experiment: Isolated temperature response of component materials to microwave RF
# Format: physicochemical
# Details: 130 Watts for 60 seconds; for P1 60 seconds ° F.: initial 68 ° F.
# Protocol: The microcells were suspended as an aqueous sample while exposed to microwave RF. Both water and mineral oil were evaluated as a liquid medium to expose microcell samples. 500 milligram samples of each microcell component were dispersed in both water and mineral oil and exposed to 130 watts of microwave RF for 60 seconds to determine the preferred fluid medium to carry out the experiment.
# Microwave RF exposure was performed in a Panasonic 1300 Watt Inverter Technology® Microwave Oven Model NN-SN667W at 130 Watts. The oven was retrofitted with all quartz platforms to reduce/eliminate dipole induction heating from standard glass structures. All containment and experimental material other than water or albumen in contact with the experimental samples was microwave transparent. Containment devices such as test tubes, slides, and cover slips were either quartz or microwave transparent plastics. Microwave oven use was limited to less than 90 minutes per test period to reduce/prevent incidental heating of the oven chamber. A 500 milliliter water “reservoir-load” was maintained within the oven chamber to absorb microwave energy and prevent magnetron damage. All tests were run in an environmentally-controlled room at about 65° F. (about 18.3° C.) and 50% RH.
structure (smiles),measurement,setting,value
"CC(=O)Nc1ccc(O)cc1 [Acetaminophen, acetaminophen]",ΔT ° F.,500 mg in 10 g Mineral Oil,0 ° F.
same,P1 60 seconds ° F.,500 mg in 10 g Mineral Oil,68 ° F.
same,ΔT ° F.,500 mg in 10 g Water,22 ° F.
same,P1 60 seconds ° F.,500 mg in 10 g Water,90 ° F.
